Values of other authors as cited in publication PMC6848746 (Psychopharmacology, 2019).
Where two headings read alike, the source gives them in different places.

What was measured:
[1] = tested on: rats; settings: MMAI discrimination; ref Marona-Lewicka and Nichols 1994, 1998; cited from earlier work
[2] = tested on: rats; settings: ref Bilsky et al. 1990, Marona-Lewicka et al. 1996; cited from earlier work
[3] = molecular target: 5-HT2B receptor; settings: read-out: 5-HT2B receptor Ki, vs. [3H]LSD, cited from earlier work
[4] = tested on: hDAT; settings: cited from earlier work
[5] = molecular target: hDAT; settings: read-out: [125I]RTI-55 binding to hDAT Ki; ref Eshleman et al. 2017; cited from earlier work

## C[C@H](N)Cc1ccccc1 [(+)-amphetamine, reference compound]
[1]
  substitution for MMAI: did not substitute

## CNC(C)Cc1ccc2c(c1)OCO2 (stereo not drawn) [MDMA, 3,4-methylenedioxymethamphetamine, reference compound]
[2]
  place conditioning effect: conditioned place preference
[1]
  substitution for MMAI: fully substituted
[3]; ref Setola et al. 2003
  Ki: 500 nM

## COC(=O)[C@H]1[C@@H](OC(=O)c2ccccc2)C[C@@H]2CC[C@H]1N2C [cocaine, reference compound]
[1]
  substitution for MMAI: did not substitute

## CCN[C@@H](C)Cc1cccc(C(F)(F)F)c1 [(+)-fenfluramine, reference compound]
[1]
  substitution for MMAI: fully substituted

## CC(N)Cc1ccc2c(c1)OCO2 (stereo not drawn) [MDA]
[3]; ref Setola et al. 2003
  Ki: 100 nM

## NC1Cc2ccc(I)cc2C1 (stereo not drawn) [5-IAI, 5-iodo-2-aminoindan]
[3]; ref Iversen et al. (2013)
  Ki: 70 nM

## CN[C@@H](C)Cc1ccccc1 [methamphetamine]
[4]; read-out: [3H]DA uptake inhibition IC50, ref Eshleman et al. 2017
  IC50: 66.7 nM
[4]; ref Eshleman et al. 2017
  fold higher potency for [3H]DA uptake inhibition than [125I]RTI-55 displacement: about 70 fold
[5]
  Ki: 4580 nM

## CC[C@@H](Cc1ccc2c(c1)OCO2)NC [S-(+)-MBDB, S-(+)-N-methyl-1-(1,3-benzodioxol-5-yl)-2-butanamine, reference compound]
[1]
  substitution for MMAI: fully substituted
